Source: PubChem BioAssay AID248 (DTP/NCI, 2004)
Values joined by “and” are separate entries in the source; they are usually repeats but may differ in a detail not shown here. Equal entries are not always repeated. Inconclusive results and toxic doses are left out.

Tested on: L1210 leukemia ip in BDF1 mice, survival T/C
Assay: NCI In Vivo Anticancer Drug Screen. Data for tumor model L1210 Leukemia (intraperitoneal) in B6D2F1 (BDF1) mice
Conditions: endpoint: mean survival time, higher = longer survival
Summary of the method: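 Value reflects the ratio of survival in compound-treated mice to survival in vehicle-treated controls, with both groups carrying the same transplanted tumor.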

[1] = dose: 100.0 mg/kg/injection, schedule: Q01DX009 (ip), vehicle: Klucel (hydroxypropylcellulose) (HPC)
[2] = dose: 100.0 mg/kg/injection, schedule: Q04DX002 (ip), vehicle: Klucel (hydroxypropylcellulose) (HPC)
[3] = dose: 200.0 mg/kg/injection, schedule: Q01DX009 (ip), vehicle: Klucel (hydroxypropylcellulose) (HPC)
[4] = dose: 400.0 mg/kg/injection, schedule: Q01DX009 (ip), vehicle: Klucel (hydroxypropylcellulose) (HPC)
[5] = dose: 400.0 mg/kg/injection, schedule: Q04DX002 (ip), vehicle: Klucel (hydroxypropylcellulose) (HPC)
[6] = dose: 12.5 mg/kg/injection, schedule: Q01DX009 (ip), vehicle: saline
[7] = dose: 25.0 mg/kg/injection, schedule: Q01DX009 (ip), vehicle: saline
[8] = dose: 50.0 mg/kg/injection, schedule: Q01DX009 (ip), vehicle: saline
[9] = dose: 50.0 mg/kg/injection, schedule: Q04DX003 (ip), vehicle: saline
[10] = dose: 100.0 mg/kg/injection, schedule: Q01DX009 (ip), vehicle: saline
[11] = dose: 100.0 mg/kg/injection, schedule: Q04DX003 (ip), vehicle: saline
[12] = dose: 100.0 mg/kg/injection, schedule: Q04DX003 (ip), vehicle: Klucel (hydroxypropylcellulose) (HPC)
[13] = dose: 200.0 mg/kg/injection, schedule: Q04DX003 (ip), vehicle: Klucel (hydroxypropylcellulose) (HPC)
[14] = dose: 400.0 mg/kg/injection, schedule: Q04DX003 (ip), vehicle: Klucel (hydroxypropylcellulose) (HPC)
[15] = dose: 50.0 mg/kg/injection, schedule: Q01DX001 (ip), vehicle: carboxymethylcellulose (CMC)
[16] = dose: 100.0 mg/kg/injection, schedule: Q01DX001 (ip), vehicle: carboxymethylcellulose (CMC)
[17] = dose: 100.0 mg/kg/injection, schedule: Q01DX009 (ip), vehicle: saline with Tween-80
[18] = dose: 200.0 mg/kg/injection, schedule: Q01DX001 (ip), vehicle: carboxymethylcellulose (CMC)
[19] = dose: 200.0 mg/kg/injection, schedule: Q01DX009 (ip), vehicle: saline with Tween-80
[20] = dose: 400.0 mg/kg/injection, schedule: Q01DX001 (ip), vehicle: carboxymethylcellulose (CMC)
[21] = dose: 400.0 mg/kg/injection, schedule: Q01DX009 (ip), vehicle: saline with Tween-80
[22] = dose: 200.0 mg/kg/injection, schedule: Q04DX002 (ip), vehicle: Klucel (hydroxypropylcellulose) (HPC)
[23] = dose: 100.0 mg/kg/injection, schedule: Q04DX003 (ip), vehicle: saline with Tween-80
[24] = dose: 200.0 mg/kg/injection, schedule: Q04DX003 (ip), vehicle: saline with Tween-80

COc1ccc(COC(=O)Nc2ccccc2Cl)cc1
T/C [1]: 91 % of control
T/C [2]: 95 % of control
T/C [3]: 96 % of control
T/C [4]: 104 % of control
T/C [5]: 95 % of control

COc1cc2c(cc1OC)CC[N+](C)=C2
T/C [6]: 92 % of control
T/C [7]: 95 % of control
T/C (dose: 25.0 mg/kg/injection, schedule: Q04DX003 (ip), vehicle: saline): 108 % of control
T/C [8]: 93 % of control
T/C [9]: 100 % of control
T/C [10]: 96 % of control
T/C [11]: 103 % of control and 106 % of control

O=C(Nc1cc([N+](=O)[O-])ccc1F)N(Cc1ccccc1)c1ccccc1
T/C [12]: 97 % of control
T/C [13]: 92 % of control
T/C [14]: 87 % of control

O=[N+]([O-])c1ccccc1SSc1ccccc1[N+](=O)[O-]
T/C [15]: 105 % of control
T/C [16]: 94 % of control
T/C [17]: 95 % of control
T/C [18]: 109 % of control
T/C [19]: 98 % of control
T/C [20]: 100 % of control
T/C [21]: 98 % of control

CO[C@H]1Nc2c(ccc(C)c2O)C(=O)N2C=C(/C=C/C(N)=O)C[C@@H]12
T/C (dose: 0.05 mg/kg/injection, schedule: Q01DX015 (ip), vehicle: saline): 104 % of control
T/C (dose: 0.08 mg/kg/injection, schedule: Q04DX003 (ip), vehicle: saline with Tween-80): 112 % of control
T/C (dose: 0.1 mg/kg/injection, schedule: Q01DX015 (ip), vehicle: saline): 112 % of control
T/C (dose: 0.16 mg/kg/injection, schedule: Q04DX003 (ip), vehicle: saline with Tween-80): 93 % of control
T/C (dose: 0.2 mg/kg/injection, schedule: Q01DX015 (ip), vehicle: saline): 112 % of control
T/C (dose: 0.21 mg/kg/injection, schedule: Q01DX015 (ip), vehicle: saline): 114 % of control
T/C (dose: 0.25 mg/kg/injection, schedule: Q01DX001 (ip), vehicle: saline): 117 % of control
T/C (dose: 0.36 mg/kg/injection, schedule: Q01DX015 (ip), vehicle: saline): 118 % of control
T/C (dose: 0.4 mg/kg/injection, schedule: Q01DX015 (ip), vehicle: saline): 110 % of control
T/C (dose: 0.5 mg/kg/injection, schedule: Q01DX001 (ip), vehicle: saline): 117 % of control
T/C (dose: 0.6 mg/kg/injection, schedule: Q01DX015 (ip), vehicle: saline): 115 % of control and 117 % of control
T/C (dose: 1.0 mg/kg/injection, schedule: Q01DX015 (ip), vehicle: saline): 98 % of control
T/C (dose: 1.3 mg/kg/injection, schedule: Q01DX001 (ip), vehicle: saline): 156 % of control
T/C (dose: 25.0 micrograms/kg/injection, schedule: Q04DX003 (ip), vehicle: saline): 121 % of control
T/C (dose: 50.0 micrograms/kg/injection, schedule: Q04DX003 (ip), vehicle: saline): 102 % of control
T/C (dose: 100.0 micrograms/kg/injection, schedule: Q04DX003 (ip), vehicle: saline): 114 % of control
T/C (dose: 200.0 micrograms/kg/injection, schedule: Q04DX003 (ip), vehicle: saline): 107 % of control

CC(C)(C)OC(=O)COc1cccc([N+](=O)[O-])c1
T/C [1]: 114 % of control
T/C [3]: 102 % of control
T/C [4]: 100 % of control

CN1CCC(CNC(=O)c2ccccc2)c2ccccc21 (stereo not drawn)
T/C [15]: 100 % of control
T/C [16]: 96 % of control
T/C [18]: 92 % of control
T/C [20]: 102 % of control

O=C(C[n+]1ccc2ccccc2c1)c1ccccc1
T/C [6]: 98 % of control
T/C [7]: 104 % of control
T/C [8]: 101 % of control
T/C [9]: 97 % of control

O=[N+]([O-])c1cccc(C=Nc2ccccc2)c1
T/C [12]: 112 % of control
T/C [13]: 96 % of control
T/C [14]: 96 % of control

COc1cc(/C=C2\CCOC2=O)cc(/C=C2\CCOC2=O)c1O
T/C (dose: 100.0 mg/kg/injection, schedule: Q04DX002 (ip), vehicle: saline with Tween-80): 89 % of control

Cc1ccc(C(C)CC(=O)O)cc1 (stereo not drawn)
T/C [16]: 101 % of control
T/C [18]: 95 % of control
T/C [20]: 93 % of control

CCOC(=O)Cn1c(C)cnc1C
T/C (dose: 100.0 mg/kg/injection, schedule: Q01DX001 (ip), vehicle: saline): 112 % of control
T/C [10]: 96 % of control and 108 % of control
T/C [2]: 107 % of control
T/C (dose: 100.0 mg/kg/injection, schedule: Q04DX002 (ip), vehicle: saline): 98 % of control
T/C [11]: 101 % of control
T/C (dose: 200.0 mg/kg/injection, schedule: Q01DX001 (ip), vehicle: saline): 104 % of control
T/C (dose: 200.0 mg/kg/injection, schedule: Q01DX009 (ip), vehicle: saline): 101 % of control and 91 % of control
T/C [22]: 100 % of control
T/C (dose: 200.0 mg/kg/injection, schedule: Q04DX002 (ip), vehicle: saline): 113 % of control
T/C (dose: 200.0 mg/kg/injection, schedule: Q04DX003 (ip), vehicle: saline): 99 % of control
T/C (dose: 400.0 mg/kg/injection, schedule: Q01DX001 (ip), vehicle: saline): 98 % of control
T/C (dose: 400.0 mg/kg/injection, schedule: Q01DX009 (ip), vehicle: saline): 96 % of control and 103 % of control
T/C [5]: 111 % of control
T/C (dose: 400.0 mg/kg/injection, schedule: Q04DX002 (ip), vehicle: saline): 98 % of control
T/C (dose: 400.0 mg/kg/injection, schedule: Q04DX003 (ip), vehicle: saline): 99 % of control

O=C1c2ccccc2C(=O)N1CNc1cccc(NCN2C(=O)c3ccccc3C2=O)n1
T/C [17]: 92 % of control
T/C [19]: 91 % of control
T/C [21]: 93 % of control

CCCCCCCCCCCC(O)CCCC (stereo not drawn)
T/C [1]: 90 % of control
T/C [12]: 96 % of control
T/C [3]: 95 % of control
T/C [13]: 91 % of control
T/C [14]: 90 % of control

COc1ccc(Cl)cc1NC(=O)CC(C)=O
T/C [1]: 101 % of control
T/C [12]: 97 % of control
T/C [3]: 101 % of control
T/C [13]: 99 % of control
T/C [4]: 95 % of control
T/C [14]: 94 % of control

CC(C)(C)c1ccc(SC(=O)Nc2cccc(Cl)c2Cl)cc1
T/C [1]: 96 % of control
T/C [2]: 92 % of control
T/C [3]: 103 % of control
T/C [22]: 92 % of control
T/C [4]: 100 % of control
T/C [5]: 95 % of control

OC1(c2ccccc2)C=C(c2ccccc2)C=C(c2ccccc2)O1 (stereo not drawn)
T/C (dose: 50.0 mg/kg/injection, schedule: Q01DX001 (ip), vehicle: Klucel (hydroxypropylcellulose) (HPC)): 87 % of control
T/C (dose: 100.0 mg/kg/injection, schedule: Q01DX001 (ip), vehicle: Klucel (hydroxypropylcellulose) (HPC)): 92 % of control
T/C (dose: 200.0 mg/kg/injection, schedule: Q01DX001 (ip), vehicle: Klucel (hydroxypropylcellulose) (HPC)): 94 % of control

FC(F)(F)C(F)(F)C(F)(F)c1nc2nc(Cl)c(Cl)nc2[nH]1
T/C (dose: 25.0 mg/kg/injection, schedule: Q01DX009 (ip), vehicle: saline with Tween-80): 111 % of control
T/C (dose: 50.0 mg/kg/injection, schedule: Q01DX009 (ip), vehicle: saline with Tween-80): 96 % of control and 100 % of control
T/C [23]: 91 % of control
T/C [24]: 93 % of control

CC1=Nc2onc(C)c2N=C(C)C1
T/C [17]: 109 % of control
T/C [23]: 100 % of control
T/C [19]: 94 % of control
T/C [24]: 93 % of control
T/C [21]: 96 % of control
T/C (dose: 400.0 mg/kg/injection, schedule: Q04DX003 (ip), vehicle: saline with Tween-80): 95 % of control

O=C(NCc1ccc(S(=O)(=O)F)cc1)Oc1ccc([N+](=O)[O-])cc1
T/C (dose: 25.0 mg/kg/injection, schedule: Q01DX009 (ip), vehicle: other): 100 % of control
T/C (dose: 50.0 mg/kg/injection, schedule: Q01DX009 (ip), vehicle: other): 88 % of control
T/C (dose: 100.0 mg/kg/injection, schedule: Q01DX009 (ip), vehicle: other): 98 % of control and 87 % of control
